5 compounds from US20010049357A1, “Use of Hsp27 as an anti-inflammatory agent” (priority 1999, published 2001) can be followed below.

Experiment [1] concerns human MØ. Briefly: IL-10 production by human MØ (ELISA of culture supernates). The experiment is classed as cell-based. A general note: ELISA stands for enzyme-linked immunosorbent assay.
Experiment [2] relates to human MØ. Nature of the experiment: TNFα production by human MØ (ELISA of culture supernates). In kind it is cell-based.
Another experiment has as its system MØ. Nature of the experiment: MØ conversion (differentiation) into immature dendritic cells by IL-4 plus GM-CSF. The experiment is classed as cell-based. As to conditions: Hsp27 added to MØ cultures at the initiation of conversion. The text has this:
In a preferred method for obtaining dendritic cells in vitro, isolated MØ are are first stimulated to undergo conversion (differentiation) into immature dendritic cells, and then stimulated to mature into fully active or competent dendritic cells. Conversion can be stimulated or promoted in vitro by any effective treatment. For example, conversion can be promoted by treating the MØ with an effective amount of IL-4 and an effective amount of GM-CSF, in accordance with conventional techniques. Typically, the IL-4 and GM-CSF treatment is for approximately 3-4 days. One indication of conversion is expression of CD1a. For guidance concerning in vitro conversion of MØ to immature dendritic cells, see, e.g., Chapius et al., 1997, Eur. J. Immunol. 27:431-441.
(§1) Hsp27 added to MØ cultures at the initiation of conversion inhibited differentiation of MØ to dendritic cells mediated or promoted by the combination of IL-4 plus GM-CSF.

For a further experiment, the system named is Normal control monocytes. In kind it is cell-based, human.
Experiment [3] deals with IL-10 mRNA in human monocytes. Briefly: RNAse protection assay of IL-10 mRNA in human monocytes. The experiment is classed as cell-based.
For a further experiment, the system named is immature dendritic cells. Briefly: Maturation of immature dendritic cells (CD83 expression). The experiment is classed as cell-based. As for the experimental part:
Preferably, the MØ are not brought into contact with Hsp27 before their conversion into immature dendritic cells, because Hsp27 inhibits the conversion. After conversion, however, Hsp27 acts as a potent promoter of maturation by the immature dendritic cells. […] Dendritic cell maturation is detectable as early as 24 hours after initiation of Hsp27 treatment. Preferably, however, Hsp27-induced maturation is allowed to proceed for 48 to 72 hours. One useful indication of dendritic cell maturation is expression of CD83.
as §1

A further experiment concerns p38 MAPK. Nature of the experiment: Immunoblot for activation (phosphorylation) of p38 MAPK in human MØ. To be noted: after addition of Hsp 27 2 μg/ml. In kind it is cell-based. The procedure: (§2) Monocytes (1.5×10^6 cells) were cultured in serum free medium for 2 hrs and then stimulated with Hsp 27 (2 μg/ml) for different time periods (1 min to 3 hrs). Western blot analysis was performed, essentially as described previously (29). Briefly, cells were lysed using a buffer consisting of 1% Nonidet P-40, 50 mM HEPES (pH 7.2), 100 mM NaCl, 2 mM EDTA, 1 mM pyrophosphate, 2 mM Na3VO4, 10 mM NaF, 1 mM PMSF, 10 μg/ml leupeptin and 10 μg/ml aprotinin. Postnuclear supernates were harvested after centrifugation of the lysate for 15 min at 14,000 g at 4° C. Equal amounts of postnuclear lysates were boiled for 5 min in the presence of SDS sample buffer (reducing) and subjected to SDS-12% PAGE and then transferred to nitrocellulose membrane (Millipore Corp, Bedford, Mass.) in transfer buffer [25 mM Tris, 192 mM glycine, pH 8.3, 20% (V/V) methanol]. Membranes were first rinsed in TTBS (TBS with 0.1% Tween 20) and then blocked for 1 hr at room temperature in TTBS-5% W/V nonfat dry milk. The membrane was then incubated overnight at 4° C. with antiphospho-p38 MAPK antibody (rabbit polyclonal; New England Biolab) (1:1000 dilution in TTBS-1% BSA). Antibody-antigen complexes were detected with the aid of HRP-conjugated anti-rabbit secondary antibody (1:2000 dilution) (New England Biolab) followed by detection of the bands with ECL reagent (NEN Life Science Products). […]
(§3) To assess the activation (phosphorylation) of three different mitogen-activated protein kinases (MAPK)—p38, p44/42 (Erk 1/2) and p46/54 (SAPK/JNK-1/2) after Hsp 27 addition, we stimulated human MØ at different time points and measured activated p38, Erk 1/2 and JNK 1/2 using the respective antibodies against the phosphorylated forms of the MAPKs. […]

The subject of another experiment is p44/42 (Erk 1/2). Nature of the experiment: Immunoblot for activation (phosphorylation) of Erk 1/2 in human MØ. As to conditions: after addition of Hsp 27 2 μg/ml. The experiment is classed as cell-based. As for the experimental part: Monocytes (1.5×10^6 cells) were cultured in serum free medium for 2 hrs and then stimulated with Hsp 27 (2 μg/ml) for different time periods (1 min to 3 hrs). Western blot analysis was performed, essentially as described previously (29). Briefly, cells were lysed using a buffer consisting of 1% Nonidet P-40, 50 mM HEPES (pH 7.2), 100 mM NaCl, 2 mM EDTA, 1 mM pyrophosphate, 2 mM Na3VO4, 10 mM NaF, 1 mM PMSF, 10 μg/ml leupeptin and 10 μg/ml aprotinin. Postnuclear supernates were harvested after centrifugation of the lysate for 15 min at 14,000 g at 4° C. […] Antibody-antigen complexes were detected with the aid of HRP-conjugated anti-rabbit secondary antibody (1:2000 dilution) (New England Biolab) followed by detection of the bands with ECL reagent (NEN Life Science Products). […]
as §3
(A western blot detects proteins with antibodies after separation by electrophoresis.)

In a further experiment the test system is MAPKAPKinase-2. The experiment is classed as cell-based, human.
The test system of another experiment is p46/54 (SAPK/JNK-1/2). Nature of the experiment: Immunoblot for activation (phosphorylation) of SAPK/JNK in human MØ. In kind it is cell-based. The procedure: as §2, §3
The mark [4] stands for this setting: after addition of Hsp 27 2 μg/ml.

Where two headings read alike, the source gives them in different places.

Take `C[S+]([O-])c1ccc(-c2nc(-c3ccncc3)c(-c3ccc(F)cc3)[nH]2)cc1` (centres unmarked) [SB203580, reference compound]: the “inhibition of Hsp 27 induced MØ IL-10 production” value in the experiment on human MØ [1] is given as “approximately 80%”. For the same compound, the “TNFα induced by Hsp 27 blocked” value with human MØ [2] is recorded as 90%.

For the compound `COc1cccc(-c2cc(=O)c3ccccc3o2)c1N` [PD98059, reference compound], the “effect on Hsp 27 induced MØ IL-10 production” value with human MØ [1] is reported as “did not have any inhibitory effect”. The “TNFα induced by Hsp 27 blocked” value in the experiment on human MØ [2] (inhibitor 10 μM for 2 hrs before Hsp 27 2 μg/ml) is reported as 68%.

Regarding heat shock protein-27 [Hsp 27], the “effect on differentiation of MØ to dendritic cells promoted by IL-4 plus GM-CSF” value in the experiment with MØ is reported as “inhibited”. Also, in the experiment with Normal control monocytes, the “IL-12(pg/10^6 cells/ml) x ± SEM” value was 3428 ± 1102 pg/10^6 cells/ml, the “increase in IL-12 as compared to SEB+MDP” value is “approximately 3 fold” and the “increase in IL-12 relative to SEB+MDP” value was 2.5-3.5. In the experiment with human MØ [1], the “IL-10(pg/10^6 cells/ml) x ± SEM” value is listed as 5267 ± 610 pg/10^6 cells/ml, the “MØ IL-10 production” value is on record as “approximately 3400 pg/ml”, the “increase in IL-10 as compared to SEB+MDP” value was “approximately 3 fold” and the “increase in IL-10 relative to SEB+MDP” value is 2.5-3.5. In the experiment on human MØ [1] (dose-dependent, FIG. 1B), the “optimum concentration for Hsp 27 induced MØ IL-10 production” value lay in the range of 1 to 5 µg/mL. Besides, the “IL-10 mRNA levels relative to control MDP+SEB induced levels” value in experiment [3] amounted to 3.2 fold. Also, the “increase in IL-10 mRNA levels compared to only adherence stimulated MØ” value in experiment [3] (Hsp 27 2 μg/ml, 8-9 hrs) is on record as about 7.2 fold. In addition, the “effect on maturation of immature DC to mature antigen-presenting DC” value in the experiment with immature dendritic cells (Hsp27 added after initial differentiation into DC (day 4 of induction)) was “strongly promoted”. In addition, in the experiment on immature dendritic cells (after initiation of Hsp27 treatment), the “time at which dendritic cell maturation is detectable” value was at least 24 h. In the experiment on p38 MAPK, the “persistence of p38 MAPK activation” value is on record as “up to 180 min”, the “time at which p38 MAPK phosphorylation was clearly increased” value was determined as 20 min and the “time of maximal stimulation of p38 MAPK” value worked out at 40 min. Besides, in the experiment on p44/42 (Erk 1/2), the “time at which Erk 1/2 phosphorylation was clearly increased” value is reported as 20 min and the “time of maximal stimulation of Erk 1/2” value was 40 min. For the same compound, the “MAPKAPKinase-2 activity versus adherence stimulated untreated MØ lysate” value with MAPKAPKinase-2 was “significantly increased”. Also, the “MØ TNFα production” value in the experiment on human MØ [2] (16-18 hrs) came to 483 ± 74 pg/mL. Besides, in the experiment with p46/54 (SAPK/JNK-1/2) (setting [4]), the “time at which JNK 1/2 phosphorylation was clearly increased” value was found to be 20 min and the “time of maximal stimulation of JNK 1/2” value is recorded as 40 min. The “induction of P-p54 JNK” value in the experiment on p46/54 (SAPK/JNK-1/2) (compared to activation of p38 and Erk) was “only minimal”.

On to TNFα, for which the “increase in IL-10 levels” value in the experiment on human MØ [1] (exogenous addition of 100 U/ml TNFα) amounted to 1.5 fold.

Consider polymyxin B [reference compound], for which, in the experiment on human MØ [1] (polymyxin B 200 U/ml together with Hsp 27 2 μg/ml), the “effect on Hsp 27 induced MØ IL-10 production” value is reported as “could not inhibit”.
